Reference: patent US12662491B2 (Redona Therapeutics, Inc., priority 2020, dated 2026)
pIC50: −log10 of the molar value.

target: T1, Zcchc11 enzyme (Homo sapiens, UniProt Q5TAX3); assay: TUTase assay (Zcchc11 assay, Lin28a-dependent polyuridylation of pre-let-7); assay type: biochemical; conditions: LIN28A 10 nM, Zcchc11 0.2 nM, 5′-fluorescein pre-let-7 miRNA 2 nM, UTP 5 uM, room temperature, 30 minutes pre-incubation; read-out: Potency Lin28a-dep Z11 IC50
T1 construct: made in house; host or cells: HEK293 cells (Zcchc11); E. coli Rosetta II (LIN28A)
T1 sequence (Q5TAX3 212-1420): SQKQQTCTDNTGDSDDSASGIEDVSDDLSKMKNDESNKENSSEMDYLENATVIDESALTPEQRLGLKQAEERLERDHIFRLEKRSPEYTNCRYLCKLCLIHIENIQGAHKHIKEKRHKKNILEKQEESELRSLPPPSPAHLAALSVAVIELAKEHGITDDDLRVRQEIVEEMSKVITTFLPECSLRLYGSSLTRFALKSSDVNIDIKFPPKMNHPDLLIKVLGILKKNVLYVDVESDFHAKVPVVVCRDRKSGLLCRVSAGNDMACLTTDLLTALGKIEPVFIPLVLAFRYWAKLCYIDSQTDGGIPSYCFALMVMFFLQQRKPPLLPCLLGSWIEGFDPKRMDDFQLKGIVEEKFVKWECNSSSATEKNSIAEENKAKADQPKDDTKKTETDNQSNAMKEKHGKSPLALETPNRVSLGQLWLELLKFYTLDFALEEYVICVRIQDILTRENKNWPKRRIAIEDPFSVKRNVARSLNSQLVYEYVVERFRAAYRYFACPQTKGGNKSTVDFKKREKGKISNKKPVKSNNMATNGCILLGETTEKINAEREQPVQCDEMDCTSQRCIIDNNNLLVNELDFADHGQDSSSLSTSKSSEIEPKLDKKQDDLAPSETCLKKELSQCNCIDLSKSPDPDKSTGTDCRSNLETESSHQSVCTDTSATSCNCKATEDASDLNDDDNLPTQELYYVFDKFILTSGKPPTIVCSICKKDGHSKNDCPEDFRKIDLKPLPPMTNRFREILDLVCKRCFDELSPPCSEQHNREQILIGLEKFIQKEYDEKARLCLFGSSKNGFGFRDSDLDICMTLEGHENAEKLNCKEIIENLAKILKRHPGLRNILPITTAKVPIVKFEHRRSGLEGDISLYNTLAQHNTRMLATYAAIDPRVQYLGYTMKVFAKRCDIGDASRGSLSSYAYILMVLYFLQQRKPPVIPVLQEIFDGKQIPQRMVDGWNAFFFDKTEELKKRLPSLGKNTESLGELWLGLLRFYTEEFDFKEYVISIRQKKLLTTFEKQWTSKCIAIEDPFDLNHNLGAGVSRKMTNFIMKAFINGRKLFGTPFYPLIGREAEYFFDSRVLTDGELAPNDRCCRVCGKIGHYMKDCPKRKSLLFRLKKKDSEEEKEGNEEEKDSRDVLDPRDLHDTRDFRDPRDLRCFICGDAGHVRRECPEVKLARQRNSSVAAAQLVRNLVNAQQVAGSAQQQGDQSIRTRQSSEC
Method in brief: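 Readout: time-dependent quench of 5′-fluorescein pre-let-7 (2 nM) as 3′-rhodamine A20 probe anneals to poly(U) tails. Enzyme 0.2 nM Zcchc11 (res. 212-1420), LIN28A 10 nM, UTP 5 uM; pH 7.3 HEPES, 150 mM KCl, 5 mM MgCl2, RT. 4-parameter IC50; 100% = DMSO, 0% = no UTP.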

pIC50	Compound
≥ 6.00	CN(C)C(=O)OC[C@H]1CCCN1c1cc2c(cc1Cl)c(=O)c(C(=O)O)cn2-c1ccc(N2CC(N(C)C)C2)nc1 [Example 49, 6-chloro-1-[6-[3-(dimethylamino)azetidin-1-yl]pyridin-3-yl]-7-[(2R)-2-[[(dimethylcarbamoyl)oxy]methyl]pyrrolidin-1-yl]-4-oxoquinoline-3-carboxylic acid]
≥ 6.00	COc1ccc(Cl)c(OCC2N(c3cc4c(cc3Cl)c(=O)c(C(=O)O)cn4-c3cc(N)cnn3)CCC2(C)C)n1 (centres unmarked) [Example 67, 1-(5-Aminopyridazin-3-yl)-6-chloro-7-(2-(((3-chloro-6-methoxypyridin-2-yl)oxy)methyl)-3,3-dimethylpyrrolidin-1-yl)-4-oxo-1,4-dihydroquinoline-3-carboxylic acid]
< 4.30	Cc1c(F)c(N2CCC[C@@H]2COc2ccccn2)cc2c1c(=O)c(C(=O)O)cn2C1CC1 [Example 1, (R)-1-cyclopropyl-6-fluoro-5-methyl-4-oxo-7-(2-((pyridin-2-yloxy)methyl)pyrrolidin-1-yl)-1,4-dihydroquinoline-3-carboxylic acid]
≥ 6.00	CN(C)C1CN(c2ccc(-n3cc(C(=O)O)c(=O)c4cc(Cl)c(N5CCC[C@@H]5COc5ncccc5Cl)cc43)cn2)C1 [Example 78, 6-chloro-7-[(2R)-2-{[(3-chloropyridin-2-yl)oxy]methyl}pyrrolidin-1-yl]-1-{6-[3-(dimethylamino)azetidin-1-yl]pyridin-3-yl}-4-oxo-1,4-dihydroquinoline-3-carboxylic acid]

same assay, conditions: Lin28a-dependent Zcchc11 (Z11) TUTase activity; read-out: Potency Lin28a-dep Z11 IC50

Compound	pIC50
Cn1cc(-n2cc(C(=O)O)c(=O)c3cc(Cl)c(N4CCC[C@@H]4COc4ncccc4Cl)nc32)cn1 (racemic) [Compound 191, rac-(R)-6-chloro-7-(2-(((3-chloropyridin-2-yl)oxy)methyl)pyrrolidin-1-yl)-1-(1-methyl-1H-pyrazol-4-yl)-4-oxo-1,4-dihydro-1,8-naphthyridine-3-carboxylic acid]	≥ 6.00
CN(C)C(=O)NC[C@H]1CCCN1c1cc2c(cc1Cl)c(=O)c(C(=O)O)cn2-c1ccc(N2CC(N(C)C)C2)nc1 [Compound 292, (R)-6-chloro-1-(6-(3-(dimethyl-amino)azetidin-1-yl)pyridin-3-yl)-7-(2-((3,3-dimethyl-ureido)methyl)pyrrolidin-1-yl)-4-oxo-1,4-dihydro-quinoline-3-carboxylic acid]	≥ 6.00

Results, then the molecule that gave them:

pIC50	Compound
5.00 to 6.00	O=C(O)c1cn(-c2ncc(O)cn2)c2cc(N3CCC[C@@H]3COc3ccccn3)c(F)cc2c1=O [Compound 88, (R)-6-fluoro-1-(5-hydroxy-pyrimidin-2-yl)-4-oxo-7-(2-((pyridin-2-yloxy)methyl)pyrrolidin-1-yl)-1,4-dihydro-quinoline-3-carboxylic acid]
5.00 to 6.00	O=C(O)c1cn(-c2ccc(O)cc2)c2cc(N3CCC[C@@H]3COc3ccccc3Cl)c(F)cc2c1=O [Compound 107, (R)-7-(2-((2-chlorophenoxy)methyl)pyrrolidin-1-yl)-6-fluoro-1-(4-hydroxy-phenyl)-4-oxo-1,4-dihydro-quinoline-3-carboxylic acid]
< 4.30	O=C(O)c1cn(-c2ccc(O)cc2F)c2cc(N3CCC[C@@H]3COc3ccccc3)c(F)cc2c1=O [Compound 90, (R)-6-fluoro-1-(2-fluoro-4-hydroxy-phenyl)-4-oxo-7-(2-(phenoxy-methyl)pyrrolidin-1-yl)-1,4-dihydro-quinoline-3-carboxylic acid]
5.00 to 6.00	O=C(O)c1cn(-c2ccc(O)cc2F)c2cc(N3CCC[C@@H]3COc3ccncn3)c(F)cc2c1=O [Compound 136, (R)-6-fluoro-1-(2-fluoro-4-hydroxy-phenyl)-4-oxo-7-(2-((pyrimidin-4-yloxy)methyl)pyrrolidin-1-yl)-1,4-dihydro-quinoline-3-carboxylic acid]

same assay, conditions: Lin28a-dependent Zcchc11 (Z11) TUTase assay; read-out: Potency Lin28a-dep Z11 IC50

Compound	pIC50
O=C(O)c1cn(Cc2cn[nH]c2)c2cc(N3CCC[C@@H]3COc3ncccc3Cl)c(Cl)cc2c1=O [Example 581, (R)-1-((1H-pyrazol-4-yl)methyl)-6-chloro-7-(2-(((3-chloropyridin-2-yl)oxy)methyl)pyrrolidin-1-yl)-4-oxo-1,4-dihydroquinoline-3-carboxylic acid]	5.00 to 6.00
O=C(O)c1cn(-c2cc3n(n2)CCNC3)c2cc(N3CCC[C@@H]3COc3ncccc3Cl)c(Cl)cc2c1=O [Example 515, (R)-6-chloro-7-(2-(((3-chloropyridin-2-yl)oxy)methyl)pyrrolidin-1-yl)-4-oxo-1-(4,5,6,7-tetrahydropyrazolo [1,5-a]pyrazin-2-yl)-1,4-dihydroquinoline-3-carboxylic acid]	≥ 6.00
CN(C)C1CN(c2ccc(-n3cc(C(=O)O)c(=O)c4cc(C#N)c(N5C[C@@H](F)C[C@@H]5COc5ncccc5Cl)cc43)cn2)C1 [Example 572, 7-((2R,4S)-2-(((3-chloropyridin-2-yl)oxy)methyl)-4-fluoropyrrolidin-1-yl)-6-cyano-1-(6-(3-(dimethylamino)azetidin-1-yl)pyridin-3-yl)-4-oxo-1,4-dihydroquinoline-3-carboxylic acid]	≥ 6.00

Results, then the molecule that gave them:

pIC50	Compound
≥ 6.00	CN(C)c1ccc(Cl)c(OC[C@H]2CCCN2c2cc3c(cc2Cl)c(=O)c(C(=O)O)cn3-c2ccnc(N)c2)n1 [Example 655, (R)-1-(2-aminopyridin-4-yl)-6-chloro-7-(2-(((3-chloro-6-(dimethylamino)pyridin-2-yl)oxy)methyl)pyrrolidin-1-yl)-4-oxo-1,4-dihydroquinoline-3-carboxylic acid]
≥ 6.00	Cc1cccc(-n2cc(C(=O)O)c(=O)c3cc(F)c(N4CCC[C@@H]4COc4ccccn4)cc32)c1C [Example 392, (R)-1-(2,3-dimethylphenyl)-6-fluoro-4-oxo-7-(2-((pyridin-2-yloxy)methyl)pyrrolidin-1-yl)-1,4-dihydroquinoline-3-carboxylic acid]
≥ 6.00	Nc1ncc(-n2cc(C(=O)O)c(=O)c3cc(Cl)c(N4CCC[C@@H]4COc4ncccc4Cl)cc32)cn1 [Example 555, (R)-1-(2-aminopyrimidin-5-yl)-6-chloro-7-(2-(((3-chloropyridin-2-yl)oxy)methyl)pyrrolidin-1-yl)-4-oxo-1,4-dihydroquinoline-3-carboxylic acid]
≥ 6.00	O=C(O)c1cn(-c2cnn3c2CNCC3)c2cc(N3CCC[C@@H]3COc3ncccc3Cl)c(Cl)cc2c1=O [Example 514, (R)-6-chloro-7-(2-(((3-chloropyridin-2-yl)oxy)methyl)pyrrolidin-1-yl)-4-oxo-1-(4,5,6,7-tetrahydropyrazolo [1,5-a]pyrazin-3-yl)-1,4-dihydroquinoline-3-carboxylic acid]
≥ 6.00	Nc1ccc(-n2cc(C(=O)O)c(=O)c3cc(Cl)c(N4CCC[C@@H]4COc4ncccc4Cl)cc32)c(F)n1 [Example 518, (R)-1-(6-amino-2-fluoropyridin-3-yl)-6-chloro-7-(2-(((3-chloropyridin-2-yl)oxy)methyl)pyrrolidin-1-yl)-4-oxo-1,4-dihydroquinoline-3-carboxylic acid]
5.00 to 6.00	CC1(n2cc(C(=O)O)c(=O)c3cc(F)c(N4CCC[C@@H]4COc4ccccn4)cc32)CCC1 [Example 363, (R)-6-fluoro-1-(1-methylcyclo-butyl)-4-oxo-7-(2-((pyridin-2-yloxy)methyl)pyrrolidin-1-yl)-1,4-dihydro-quinoline-3-carboxylic acid]
≥ 6.00	N#Cc1cc2c(=O)c(C(=O)O)cn(-c3ccc(N4CCC4)nc3)c2cc1N1CCC[C@@H]1COc1ncccc1Cl [Example 488, 1-[6-(azetidin-1-yl)pyridin-3-yl]-7-[(2R)-2-{[(3-chloropyridin-2-yl)oxy)methyl}pyrrolidin-1-yl]-6-cyano-4-oxo-1,4-dihydroquinoline-3-carboxylic acid]
